{"source": "paper PMC6564044", "about": "“Exploring E-cadherin-peptidomimetics interaction using NMR and computational studies” (PLoS Computational Biology, 2019)", "key": {"[1]": {"target": "wt E-cadherin-EC1-EC2", "assay": "KD determination by STD-NMR titration (STD-AF isotherm)", "format": "binding, human", "conditions": "STD-AF vs ligand concentration, two STD measurements per point; 283 K; protein 0.05 mM, ligand 2.0-16.0 mM", "excerpt": "STD-NMR is a consolidated technique based on Overhauser effect that is used to study the interactions between small ligands and macromolecules. The method relies on the selective irradiation of the protein, which allows magnetization to be transferred to the bound ligand (which is in great excess in solution compared to the protein concentration). The saturated ligand is displaced in solution due to the binding equilibrium and the observation of the ligand signals in the NMR spectrum provides an indication of the interaction. […] In fact, the intensity of the STD signal (expressed as absolute STD percentage) reflects the proximity of the ligand to the protein surface. […]\nIn order to evaluate the interaction strength between E-cadherin and compound 1, we acquired a series of STD spectra at variable ligand concentrations. The STD amplification factor (STD-AF) can be calculated by multiplying the observed STD by the molar excess of the ligand over the protein [20, 21, 25–27], so that its values depend on the fraction of bound protein. […]\nSupplementary file pcbi.1007041.s004.tif: S3 Fig Variation of STD-AF versus the increase of ligand 1 concentration in presence of E-cadherin interacting protons and the intensities observed are reported in the graph. We measured the KD value of compound 1 (S3 Fig) and 2 in the presence of E-cadherin by STD (for each point we performed two STD measurements). […]"}, "[2]": {"system": "wt E-cadherin-EC1-EC2", "assay": "STD-NMR epitope mapping with wt E-cadherin-EC1-EC2", "format": "binding, human", "excerpt": "STD-NMR is a consolidated technique based on Overhauser effect that is used to study the interactions between small ligands and macromolecules. The method relies on the selective irradiation of the protein, which allows magnetization to be transferred to the bound ligand (which is in great excess in solution compared to the protein concentration). The saturated ligand is displaced in solution due to the binding equilibrium and the observation of the ligand signals in the NMR spectrum provides an indication of the interaction. Those ligand protons that are nearest to the protein are more likely to become highly saturated, and therefore show the strongest signal in the mono-dimensional STD spectrum. Owing to the efficiency of the saturation process, the modulation of the ligand signal intensity is used as an epitope-mapping method to describe the target-ligand interactions. In fact, the intensity of the STD signal (expressed as absolute STD percentage) reflects the proximity of the ligand to the protein surface. Therefore, the group epitope mapping obtained provides information about the nature of the chemical moieties of the ligand that are crucial for molecular recognition in the binding site. We also used the STD amplification factors (STD-AF) to derive the dissociation constant (KD) of the ligand-protein complexes. Moreover, we performed tr-NOESY experiments in order to determine the preferred bound conformation of the ligands.\n(§1) STD–NMR and tr-NOESY spectra were acquired in 20 mM phosphate buffer at pH 7.4 (with 150 mM NaCl and 1 mM CaCl2) and 40 μM EC1-EC2 fragments of E-cadherin. In this condition, a monomeric form is predominant in solution [28]. We performed STD-NMR experiments at 283K, 290K and 298K since lowering the temperature helps to […] the rotational correlation time of the receptor and to increase the effective magnetization transfer. […] Furthermore, we also studied the binding modes of the ligands in the presence of the truncated mutant (E-cadherin-(Val3)-EC1-EC2).\n(§2) The spectra were acquired with a Bruker Avance 600 MHz instrument at 283, 290 and 298 K, in a 3 mm NMR tube and in the phosphate buffer previously described (200 μL).\n(§3) The interaction between ligands and isolated proteins was detected using trNOESY, trROESY and STD experiments. In trNOESY and trROESY experiments, water suppression was achieved by use of an excitation sculpting pulse sequence. In STD experiments water suppression was achieved by using the WATERGATE 3-9-19 pulse sequence.\n(§4) The on-resonance irradiation of the protein was kept at -0.05 ppm. Off-resonance irradiation of the protein was applied at 200 ppm, where no protein signals were visible. Selective presaturation of the protein was achieved by a train of Gauss shaped pulses of 49 ms length each. The total length of the saturation train was 2.94 s.\n(§5) All the experiments were conducted with the first two domains (EC1-EC2) of wt E–cadherin (Molecular Weight EC1-EC2 construct = 23 KDa) and with the construct lacking the first two residues (E-cadherin-(Val3)-EC1-EC2), with a ligand-protein ratio of 80:1.\nSince calcium ions are important to rigidify the EC1-EC2 linker region in the monomeric protein and considering that the use of phosphate buffer in the presence of CaCl2 may be critical, due to the limited solubility of CaHPO4, we studied the stability of the protein in phosphate buffer. We monitored the chemical shift variation in ^1H-^15N-HSQC experiment using the ^15N-labeled protein for 24 hours and we can confirm that the protein remains in the correct folding."}, "[3]": {"system": "wt E-cadherin-EC1-EC2", "assay": "tr-NOESY bound conformation", "format": "binding, human", "conditions": "presence of E-cadherin", "experimental": "as §1, §2, §3"}, "[4]": {"system": "E-cadherin-(Val3)-EC1-EC2", "assay": "STD-NMR epitope mapping with truncated E-cadherin", "format": "binding, human", "conditions": "for STD epitope with truncated E-cadherin: three temperatures, ligand-protein 80:1", "experimental": "as §1, §2, §3, §4, §5"}, "[5]": {"assay": "Free ligand NMR conformational analysis (NOESY, VT-NMR)", "format": "physicochemical", "conditions": "for hydrogen bonding of amide/exchangeable protons: free ligand, VT experiments (compound 1); for NOESY free-state conformation: phosphate buffer, 283 K and 298 K", "experimental": "NMR spectroscopy experiments were performed at 283K and 298K on Bruker Avance 400 and 600 MHz spectrometers. All proton and carbon chemical shifts were assigned unambiguously and the assignments are reported in S1–S4 Tables. The NMR experiments were carried out in an aqueous phosphate (20 mM) buffer pH = 7 with 150 mM NaCl and 1 mM CaCl2 in order to observe amide protons with 10% D2O. Two-dimensional experiments (TOCSY, NOESY, ROESY and HSQC) were carried out on samples at a concentration range of 3–6 mM. NOESY experiments were performed with a mixing time of 200 and 700 ms.\nIn order to obtain clear spectra, the water signal suppression was achieved by using excitation sculpting sequence from Bruker library (DPFGSE, Double Pulse Field Gradient Spin Echo).\nThe conformations of the peptidomimetics were analysed with respect to hydrogen bonding of amide protons (VT-NMR spectroscopy) and NOE contacts."}, "[6]": {"system": "E-cadherin-EC1-EC2", "conditions": "mutant EC1-EC2 lacking Asp1-Trp2 (PDB 4ZTE) or intact EC1-EC2 as stated, cited from earlier work", "excerpt": "Recently, we reported the first library of small peptidomimetic molecules targeting the strand-swapped dimer interfaces of E- and N-cadherin. These compounds are mimics of the tetrapeptide sequence Asp1-Trp2-Val3-Ile4 (DWVI) of the adhesion arm, modified by replacing the central dipeptide unit (WV) with various scaffolds, all of them bearing a benzyl group that is intended to mimic the indole moiety of Trp2."}, "[7]": {"system": "N-cadherin mediated processes", "conditions": "cited from earlier work", "excerpt": "Beside its broad-ranging effects on physiological tissue organization, classical cadherin dysfunction is often correlated with cancer progression and metastasis. Despite Epithelial (E)- to Neural (N-) cadherin switching being considered a molecular hallmark of epithelial to mesenchymal transition of cancer cells, carcinomas and distal metastases often retain E-cadherin expression, as observed for instance in late stage tumors in epithelial ovarian cancer (EOC). In this context, targeting the E-cadherin adhesive interface with small molecules could have a therapeutic a ..."}, "[8]": {"conditions": "283, 290 and 298 K, wt E-cadherin-EC1-EC2"}, "[9]": {"conditions": "VT-NMR, phosphate 20 mM, pH 7, 10% D2O"}, "[10]": {"conditions": "283 K, wt E-cadherin-EC1-EC2, ligand-protein 80:1"}, "[11]": {"conditions": "290 K, wt E-cadherin-EC1-EC2, ligand-protein 80:1"}}, "note": "Read-outs that look alike come from different tables or passages of the source. Positions of bridges follow the written chain, without caps; N, C: chain ends."}
{"compound": "CCC(C)C(NC(=O)CC1NC(=O)C(CNC(=O)C(N)CC(=O)O)N(Cc2ccccc2)C1=O)C(=O)NC(C)(C)C.O=C(O)C(F)(F)F", "note": "(stereo not shown) [compound 1]", "values": [{"measurement": "Kd", "setting": "[1]", "value": "> 20", "unit": "mM"}, {"measurement": "STD interaction of aromatic moiety", "setting": "[2]; [8]", "value": "interacts at all the temperatures with similar strength"}, {"measurement": "STD epitope changes (NH10, NH1, Ile NH)", "setting": "[2]; 290 K, wt E-cadherin-EC1-EC2", "value": "NH10 STD signal disappears, NH1 decreases in intensity and the signal of the amidic Ile proton appears"}, {"measurement": "STD epitope, NHIle", "setting": "[2]; 298 K, wt E-cadherin-EC1-EC2", "value": "NHIle signal replaces those of NH1 and NH10"}, {"measurement": "STD epitope, NH1 and NH10", "setting": "[2]; lowest temperature (283 K), wt E-cadherin-EC1-EC2", "value": "strong interactions at the lowest temperature"}, {"measurement": "STD interaction of Ile backbone NH", "setting": "[2]; temperature dependence, wt E-cadherin-EC1-EC2", "value": "seems to interact only at a higher temperature"}, {"measurement": "tr-NOESY bound conformation / contacts", "setting": "[3]", "value": "in the bound form compound 1 adopts an extended conformation"}, {"measurement": "STD epitope with truncated E-cadherin", "setting": "[4]; E-cadherin-(Val3)-EC1-EC2", "value": "only the aromatic protons are able to interact with the protein"}, {"measurement": "binding affinity to truncated vs wt E-cadherin", "setting": "[4]; E-cadherin-(Val3)-EC1-EC2 vs wt, 283 K", "value": "weaker binding affinity"}, {"measurement": "N-terminal Asp amine signal in STD", "setting": "[4]; lower amount of D2O, E-cadherin-(Val3)-EC1-EC2", "value": "the N-terminal amine of the Asp residue of the ligand can be observed"}, {"measurement": "Δδ/ΔT of NH10", "setting": "[5]; VT-NMR, phosphate 20 mM, pH 7, 150 mM NaCl, 1 mM CaCl2, 10% D2O", "value": 4.67, "unit": "ppb*10^3"}, {"measurement": "Δδ/ΔT of NH1", "setting": "[5]; [9]", "value": 8.33, "unit": "ppb*10^3"}, {"measurement": "Δδ/ΔT of NHIle", "setting": "[5]; [9]", "value": 7.67, "unit": "ppb*10^3"}, {"measurement": "Δδ/ΔT of NHtBu", "setting": "[5]; [9]", "value": 7.33, "unit": "ppb*10^3"}, {"measurement": "hydrogen bonding of amide/exchangeable protons", "setting": "[5]", "value": "NH10 is the only one that could be engaged in an inter-molecular hydrogen bond"}, {"measurement": "NOESY free-state conformation", "setting": "[5]", "value": "equilibrium between different conformations"}, {"measurement": "X-ray binding / co-crystallization", "setting": "[6]", "value": "binds to a dimeric conformation of E-cadherin, the so-called ‘X-dimer’"}, {"measurement": "X-ray binding / co-crystallization", "setting": "[6]; listed as compounds 1", "value": "attempts to co-crystallize both compounds 1 and 2 with intact E-cadherin-EC1-EC2 did not yield results"}]}
{"compound": "CCC(C)C(NC(=O)C1CCC2CCN(Cc3ccccc3)CC(NC(=O)C(N)CC(=O)O)C(=O)N21)C(N)=O.O=C(O)C(F)(F)F", "note": "(stereo not shown) [compound 2]", "values": [{"measurement": "Kd", "setting": "[1]", "value": "> 20", "unit": "mM"}, {"measurement": "absolute STD % of aromatic protons", "setting": "[2]; [8]", "value": "about 0.2%"}, {"measurement": "absolute STD % of NH19", "setting": "[2]; 283 K, 40 μM protein, 20 mM phosphate pH 7.4, 150 mM NaCl, 1 mM CaCl2, ligand-protein 80:1", "value": 2.078, "unit": "%"}, {"measurement": "absolute STD % of C-terminal amidic NH2", "setting": "[2]; [10]", "value": 0.2, "unit": "%"}, {"measurement": "absolute STD % of scaffold H4/H6", "setting": "[2]; [10]", "value": 0.265, "unit": "%"}, {"measurement": "STD signal of scaffold H4 and H6", "setting": "[2]; 290 K, wt E-cadherin-EC1-EC2", "value": "not detectable"}, {"measurement": "absolute STD % of C-terminal amidic NH2", "setting": "[2]; [11]", "value": 0.463, "unit": "%"}, {"measurement": "absolute STD % of NH19", "setting": "[2]; [11]", "value": 1.441, "unit": "%"}, {"measurement": "protons observable in STD spectrum", "setting": "[2]; 298 K, wt E-cadherin-EC1-EC2", "value": "only the aromatic protons and the amidic NH2 (0.806%) are observable in the STD spectrum"}, {"measurement": "absolute STD % of C-terminal amidic NH2", "setting": "[2]; 298 K, wt E-cadherin-EC1-EC2, ligand-protein 80:1", "value": 0.806, "unit": "%"}, {"measurement": "tr-NOESY bound conformation / contacts", "setting": "[3]", "value": "no long range interactions were detected"}, {"measurement": "STD epitope with truncated E-cadherin", "setting": "[4]; E-cadherin-(Val3)-EC1-EC2", "value": "the only protons that are involved in the interaction are the aromatic ones"}, {"measurement": "hydrogen bonding of amide/exchangeable protons", "setting": "[5]", "value": "the exchangeable protons are not involved in intra-molecular hydrogen bond formation"}, {"measurement": "NOESY free-state conformation", "setting": "[5]", "value": "did not show any significant long range NOE contact typical of a preferred conformation"}, {"measurement": "X-ray binding / co-crystallization", "setting": "[6]", "value": "attempts to co-crystallize both compounds 1 and 2 with intact E-cadherin-EC1-EC2 did not yield results"}]}
{"compound": "Ac-CHAVC-NH2 (disulfide 1-5 (inferred)) [ADH-1]", "values": [{"measurement": "reported activity", "setting": "[7]", "value": "anti-angiogenic agent able to cause cell apoptosis"}]}
